Assay results taken from US11453689B2, “3-pyrrolidine-indole derivatives as serotonergic psychedelic agents for the treatment of CNS disorders” (Mindset Pharma Inc., priority 2020, dated 2022).
Read-outs that look alike come from different tables or passages of the source.

Assays:
[1] = molecular target: human 5-HT2A (h5-HT2A) receptor (Homo sapiens (Human), UniProt P28223); test: FLIPR calcium assay, human 5-HT2A receptor, agonist mode; type: cell-based
Protocol: I. Assessment of the Activated Effect of Exemplary Compounds of Formula I Targeting on Human 5-HT2A (h5-HT2A) Receptor Under Agonist Mode:
1. Culture the cells in cell culture medium (DMEM containing 10% FBS, 1× penicillin-streptomycin 300 μg/ml G418 and 100 μg/ml hygromycin B) at 37° C., 5% (v/v) CO2.
2. One day before the assays, detach the cell using TrypLE™ Express and count cells using cell counter.
3. Seed 20000 cells/well in 30 μl/well culture medium to a 384-well cell plate and incubate the cells overnight at 37° C., 5% (v/v) CO2.
4. On the assay day, prepare 2×dye solution following the manual of the FLIPR® Calcium 6 Assay Kit: i. Dilute the dye with assay buffer(20 mM HEPES in 1× HBSS, PH7.4); ii. Add probenecid to the final concentration of 5 mM; iii. Vortex vigorously for 1-2 minutes.
5. Medium from cell plate by flicking the cell plate on towel papers.
6. Add 10 μl of assay buffer and 10 μl of 2×dye solution to each well of the cell plate.
7. Put the cell plate on plate shaker, agitate the plate at 600 rpm for 2 minutes. Incubate the plate at 37° C. for 2 hours followed by additional 15-minute incubation at 25° C.
8. Prepare 3×compound in assay buffer: a. Dilute reference compounds to required concentration with DMSO. Add the compounds to a 384-well compound plate; b. Perform serial dilutions; c. Add 10 mM test compounds to the compound plate, perform 3-fold serial dilutions. d. […] Add 20 μl/well assay buffer to the compound plate; f. Mix the plate on plate shaker for 2 mins;
i. The normalized fluorescence reading (RFU) is calculated as shown follow, while Fmax and Fmin stand for maximum and minimum of calcium signal during defined time window: RFU=Fmax−Fmin
ii. Calculate the percentage activation by using following equation: […]
iii. Calculate EC50 by fitting % activation against log of compound concentrations with Hill equation using XLfit.

[2] = Human liver microsomes stability with NADPH; conditions: for Remaining Percentage (%) after 60 min, Human: human liver microsomes, with NADPH, 2 μM; for half-life at 2 μM / microsomal CLint at 2 μM: human, microsomes
Protocol: (§1) The objective of this study was to estimate in vitro metabolic stability of exemplary compounds in pooled human, male rat and male mouse liver microsomes. The concentrations of exemplary compounds in reaction systems were evaluated by LC-MS/MS for estimating the stability in pooled human, male rat and male mouse liver microsomes. The in vitro intrinsic clearances of test compounds were determined as well.
(§2) A master solution in the “Incubation Plate” containing phosphate buffer, ultra-pure H2O, MgCl2 solution and liver microsomes was made according to Table 3. The mixture was pre-warmed at 37° C. water bath for 5 minutes.
(§3) 40 μL of 10 mM NADPH solution was added to each well. The final concentration of NADPH was 1 mM. The negative control samples were prepared by replacing NADPH with 40 μL of ultra-pure H2O. Samples were prepared in duplicate. Negative controls were prepared in singlet.
(§4) The reaction was started with the addition of 4 μL of 200 μM exemplary test compounds or control compounds to each master solution to get the final concentration of 2 μM. This study was performed in duplicate.
(§5) Aliquots of 50 μL were taken from the reaction solution at 0, 15, 30, 45 and 60 minutes. The reaction solutions were stopped by the addition of 4 volumes of cold methanol with IS (100 nM alprazolam, 200 nM imipramine, 200 nM labetalol and 2 μM ketoprofen). Samples were centrifuged at 3,220 g for 40 minutes. Aliquot of 90 μL of the supernatant was mixed with 90 μL of ultra-pure H2O and then was used for LC-MS/MS analysis.
(§6) LC/MS analysis was performed for all samples from this study using a Shimadzu liquid chromatograph separation system equipped with degasser DGU-20A5R; solvent delivery unit LC-30AD; system controller SIL-30AC; column oven CTO-30A; CTC Analytics HTC PAL System. Mass spectrometric analysis was performed using an Triple Quad™ 5500 instrument.
(§7) All calculations were carried out using Microsoft Excel. Peak areas were determined from extracted ion chromatograms. The slope value, k, was determined by linear regression of the natural logarithm of the remaining percentage of the parent drug vs. incubation time curve.
(§8) Conversion of the in vitro t1/2 (min) into the in vitro intrinsic clearance (in vitro CLint, in μL/min/mg proteins) was done using the following equation (mean of duplicate determinations): […]

[3] = Mouse liver microsomes stability with NADPH; conditions: for half-life at 2 μM / microsomal CLint at 2 μM: male, mouse, microsomes; for Remaining Percentage (%) after 60 min, Mouse: mouse liver microsomes, with NADPH, 2 μM
Protocol: as §1, §2, §3, §4, §5, §6, §7, §8

[4] = In vivo pharmacokinetics in male C57BL/6 mice (IV and PO); conditions: mouse; for AUC(0-inf) / C0 / clearance / AUC(0-t) / half-life / MRT inf / Vd / Cmax / Tmax / bioavailability: male, C57BL/6, plasma; for AUC(0-t): read-out: AUC0-tlast; for half-life: read-out: Apparent t1/2 (converted); for MRT inf: read-out: MRT0-inf; for Vd: read-out: Vss; for bioavailability: read-out: F (bioavailability)
Protocol: Example 26: In Vivo Assessment of the Pharmacokinetics in Mice and Rats […]
Male C57BL/6 mice (25-30 g) from Charles River Labs were acclimatized for a minimum of 5 days prior to dosing. Body weights will be recorded on the day of dosing.
Animals dosed p.o. were deprived of food overnight and fed ˜2 h following dosing.
Formulations were administered intravenously (i.v.) via the tail vein or orally (p.o.) by gavage with disposable feeding needles.
Serial blood samples were collected via tail snip. Terminal blood samples will be collected under isoflurane anesthesia by cardiac puncture.
All blood samples were transferred into K2EDTA tubes on wet ice and centrifuged within 5 min (3200×g for 5 min at 4° C.) to obtain plasma. Plasma will be stored at −80° C. until analysis.
AB Sciex QTRAP 4000 or 6500 MS/MS system equipped with an LC system with a binary pump, a solvent degasser, a thermostatted column compartment and a multiplate autosampler. i. Analysis software: Phoenix® WinNonlin® 8.2 (Pharsight, Certara, Mountainview, Calif.) ii. Analysis methods: non-compartmental analysis, linear up/log down trapezoidal rule iii. PK parameters: C0, t1/2, AUC0-tlast. AUC0-∞, CL, Vss, MRT, tmax(po), Cmax(po), F, as appropriate • C0 concentration extrapolated to time zero following an i.v. dose • tmax time at which maximum concentration is observed • Cmax maximum observed concentration • Apparent t1/2 apparent terminal half-life • AUC0-tlast area under the concentration vs time curve from time 0 to the time of the last measurable concentration • AUC0-inf area under the concentration vs time curve from time 0 to infinity • CL systemic clearance • MRT0-inf mean residence time from time zero to infinity • Vss steady-state volume of distribution • F bioavailability=(Dose^iv*AUC^po)/(Dose^po*AUC^iv)*100

Row | Compound | EC50 [1] [nM] | Remaining Percentage (%) after 60 min, Human [2] [%] | half-life at 2 μM [2] [min] | microsomal CLint at 2 μM [2] [µL/min/mg] | half-life at 2 μM [3] [min] | microsomal CLint at 2 μM [3] [µL/min/mg] | Remaining Percentage (%) after 60 min, Mouse [3] [%] | AUC(0-inf) ([4]; IV, 1 mg/kg) [ng·h/mL] | C0 ([4]; IV, 1 mg/kg) [ng/mL] | clearance ([4]; IV, 1 mg/kg) [mL/min/kg] | AUC(0-t) ([4]; IV, 1 mg/kg) [ng·h/mL] | half-life ([4]; IV, 1 mg/kg) [min] | MRT inf ([4]; IV, 1 mg/kg) [h] | Vd ([4]; IV, 1 mg/kg) [L/kg] | AUC(0-inf) ([4]; PO, 10 mg/kg) [ng·h/mL] | Cmax ([4]; PO, 10 mg/kg) [ng/mL] | Tmax ([4]; PO, 10 mg/kg) [min] | AUC(0-t) ([4]; PO, 10 mg/kg) [ng·h/mL] | half-life ([4]; PO, 10 mg/kg) [min] | bioavailability ([4]; PO, 10 mg/kg) [%] | also measured
1 | [2H]C([2H])([2H])N1CCC[C@@H]1Cc1c[nH]c2cccc(O)c12 [Compound I-2, (R)-3-((1-(methyl-d3)pyrrolidin-2-yl)methyl)-1H-indol-4-ol] | < 1000 | 82.10 | 211 | 6.57 | 85.6 | 16.2 | 61.51 | 463 ± 423 | 3590 ± 4100 | 64.5 | 461 ± 421 | 185 ± 167 | 0.733 ± 0.194 | 3.09 ± 3.22 | 314 | 117 ± 23.7 | 15 | 271 ± 30.9 | 559 | 6.27 ± 0.906 | AUC(0-inf) ([4]; IV, 5 mg/kg): 1410 ± 862 ng·h/mL; C0 ([4]; IV, 5 mg/kg): 4780 ± 3570 ng/mL; clearance ([4]; IV, 5 mg/kg): 72.8 mL/min/kg; AUC(0-t) ([4]; IV, 5 mg/kg): 1370 ± 869 ng·h/mL; half-life ([4]; IV, 5 mg/kg): 762 ± 254 min; MRT inf ([4]; IV, 5 mg/kg): 3.1 ± 1.43 h; Vd ([4]; IV, 5 mg/kg): 15.3 ± 10.5 L/kg; MRT inf ([4]; PO, 10 mg/kg): 7.88 h; AUC0-inf/Dose ([4]; IV, 1 mg/kg): 463 ± 423 kg·ng·h/mL/mg; AUC0-inf/Dose ([4]; IV, 5 mg/kg): 282 ± 172 kg·ng·h/mL/mg; AUC0-inf/Dose ([4]; PO, 10 mg/kg): 31.4 (n = 2) h*kg*ng/mL/mg; Cmax/Dose ([4]; PO, 10 mg/kg): 11.7 ± 2.37 kg·ng/mL/mg
2 | [2H]C([2H])(c1c[nH]c2cccc(OC)c12)[C@H]1CCCN1C([2H])([2H])[2H] [Compound I-39, (R)-4-methoxy-3-((1-(methyl-d3)pyrrolidin-2-yl)methyl-d2)-1H-indole] | < 1000 | 73.65 | 136 | 10.2 | 96.2 | 14.4 | 64.91 | 1960 ± 696 | 1290 ± 782 | 9.25 | 1960 ± 696 | 151 ± 22 | 2.78 ± 0.388 | 1.5 ± 0.397 | 214 ± 49.6 | 134 ± 14.7 | 30 | 210 ± 46.6 | 235 ± 109 | 1.09 ± 0.253 | MRT inf ([4]; PO, 10 mg/kg): 2.3 ± 0.259 h; AUC0-inf/Dose ([4]; IV, 1 mg/kg): 1960 ± 696 kg·ng·h/mL/mg; AUC0-inf/Dose ([4]; PO, 10 mg/kg): 21.4 ± 4.96 kg·ng·h/mL/mg; Cmax/Dose ([4]; PO, 10 mg/kg): 13.4 ± 1.47 kg·ng/mL/mg
3 | [2H]C([2H])(c1c[nH]c2cccc(O)c12)[C@H]1CCCN1C([2H])([2H])[2H] [Compound I-44, (R)-3-((1-(methyl-d3)pyrrolidin-2-yl)methyl-d2)-1H-indol-4-ol] | < 1000 | 78.13 | 168 | 8.23 | 71 | 19.5 | 55.68 | 598 ± 434 | 2570 ± 2560 | 42.5 | 595 ± 433 | 70.8 ± 12.3 | 0.754 ± 0.12 | 1.98 ± 1.58 | 537 ± 274 | 158 ± 55.4 | 45 ± 26 | 477 ± 260 | 163 ± 30.7 | 8.98 ± 4.58 | MRT inf ([4]; PO, 10 mg/kg): 3.5 ± 0.965 h; AUC0-inf/Dose ([4]; IV, 1 mg/kg): 598 ± 434 kg·ng·h/mL/mg; AUC0-inf/Dose ([4]; PO, 10 mg/kg): 53.7 ± 27.4 kg·ng·h/mL/mg; Cmax/Dose ([4]; PO, 10 mg/kg): 15.8 ± 5.54 kg·ng/mL/mg
